Each structure is given as a SMILES string. pIC50: −log10 of the molar value.

In this test the test system is PBMC (T cell proliferation). The test is described as follows: T cell proliferation assay, PHA-stimulated human PBMC (BrdU ELISA). Format: cell-based. The settings on record: human PBMC, 2 μg/ml PHA, 48 hours, BrdU; read-out: D: IC50 (Tcell proliferation). Put shortly:
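BrdU ELISA readout of proliferation at 48 hours. Cells: human PBMC from healthy donors in 10% dialyzed FCS/RPMI1640, 1×10^5 per well, activated by 2 μg/ml phytohaemagglutinin in the presence of compound.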
Turning to `Fc1cccc(-n2ncc(-c3onc(-c4c(F)cccc4Cl)c3Br)c2C(F)(F)F)c1` [Example 137, 4-bromo-3-(2-chloro-6-fluorophenyl)-5-(1-(3-fluorophenyl)-5-(trifluoromethyl)-1H-pyrazol-4-yl)isoxazole], the pIC50 was 7.00 to 8.00.

Consider `COC(=O)Nc1c(-c2c(F)cccc2Cl)noc1-c1cnn(-c2cccc(F)c2)c1C(F)(F)F` [Example 138, methyl 3-(2-chloro-6-fluorophenyl)-5-[1-(3-fluorophenyl)-5-(trifluoromethyl)-1H-pyrazol-4-yl]isoxazol-4-ylcarbamate], for which the pIC50 is 6.00 to 7.00.

Take `CC(=O)Nc1c(-c2c(F)cccc2Cl)noc1-c1cnn(-c2cccc(F)c2)c1C(F)(F)F` [Example 139, N-(3-(2-chloro-6-fluorophenyl)-5-(1-(3-fluorophenyl)-5-(trifluoromethyl)-1H-pyrazol-4-yl)isoxazol-4-yl)acetamide]: the pIC50 was 5.00 to 6.00.

Take `Fc1cccc(Cl)c1-c1noc(-c2cnn(-c3cccc(Cl)c3)c2C(F)(F)F)c1Br` [Example 140, 4-bromo-3-(2-chloro-6-fluorophenyl)-5-(1-(3-chlorophenyl)-5-(trifluoromethyl)-1H-pyrazol-4-yl)isoxazole]: the pIC50 was 7.00 to 8.00.

For the compound `Fc1cccc(Cl)c1-c1noc(-c2cnn(-c3ccccc3)c2C(F)(F)F)c1Br` [Example 145, 4-bromo-3-(2-chloro-6-fluorophenyl)-5-(1-phenyl-5-(trifluoromethyl)-1H-pyrazol-4-yl)isoxazole], the pIC50 was 7.00 to 8.00.

As for `CCOC(=O)c1c(-c2c(F)cccc2Cl)noc1-c1cnn(-c2ccccc2NC(C)=O)c1C(F)(F)F` [Example B-1], the pIC50 was 5.00 to 6.00.

Regarding `CCOC(=O)c1c(-c2c(F)cccc2Cl)noc1-c1cnn(CCOC)c1C(F)(F)F` [Example B-2, ethyl 3-(2-chloro-6-fluorophenyl)-5-(1-(2-methoxyethyl)-5-(trifluoromethyl)-1H-pyrazol-4-yl)isoxazole-4-carboxylate], the pIC50 was 5.00 to 6.00.

`CCOC(=O)c1c(-c2ccncc2F)noc1-c1cnn(-c2ccncc2)c1C(F)(F)F` [Example B-3, ethyl 3-(3-fluoropyridin-4-yl)-5-(1-(pyridin-4-yl)-5-(trifluoromethyl)-1H-pyrazol-4-yl)isoxazole-4-carboxylate]: the pIC50 is 6.00 to 7.00.

Turning to `CCOC(=O)c1c(-c2ccncc2F)noc1-c1cnn(-c2cccc(Cl)c2)c1C(F)(F)F` [Example B-4, ethyl 5-(1-(3-chlorophenyl)-5-(trifluoromethyl)-1H-pyrazol-4-yl)-3-(3-fluoropyridin-4-yl)isoxazole-4-carboxylate], the pIC50 is 5.00 to 6.00.

Consider `CCOC(=O)c1c(-c2c(Cl)cncc2Cl)noc1-c1cnn(-c2ccccn2)c1C(F)(F)F` [Example B-5, ethyl 3-(3,5-dichloropyridin-4-yl)-5-(1-(pyridin-2-yl)-5-(trifluoromethyl)-1H-pyrazol-4-yl)isoxazole-4-carboxylate], for which the pIC50 was 5.00 to 6.00.

For `CCOC(=O)c1c(-c2ccncc2F)noc1-c1cnn(-c2cccc(NC(C)=O)c2)c1C(F)(F)F` [Example B-6, ethyl 5-(1-(3-acetamidophenyl)-5-(trifluoromethyl)-1H-pyrazol-4-yl)-3-(3-fluoropyridin-4-yl)isoxazole-4-carboxylate], the pIC50 is 6.00 to 7.00.

Consider `CCOC(=O)c1c(-c2c(Cl)cncc2Cl)noc1-c1cnn(-c2cccc(Cl)c2)c1C(F)(F)F` [Example B-7, ethyl 5-(1-(3-chlorophenyl)-5-(trifluoromethyl)-1H-pyrazol-4-yl)-3-(3,5-dichloropyridin-4-yl)isoxazole-4-carboxylate], for which the pIC50 is 5.00 to 6.00.

With `CCOC(=O)c1c(-c2ccncc2F)noc1-c1cnn(-c2ccccn2)c1C(F)(F)F` [Example B-8, ethyl 3-(3-fluoropyridin-4-yl)-5-(1-(pyridin-2-yl)-5-(trifluoromethyl)-1H-pyrazol-4-yl)isoxazole-4-carboxylate], the pIC50 was 5.00 to 6.00.

For `CCOC(=O)c1c(-c2c(Cl)cncc2Cl)noc1-c1cnn(-c2ccccc2F)c1C(F)(F)F` [Example B-9, ethyl 3-(3,5-dichloropyridin-4-yl)-5-(1-(2-fluorophenyl)-5-(trifluoromethyl)-1H-pyrazol-4-yl)isoxazole-4-carboxylate], the pIC50 is 7.00 to 8.00.

On to `CCOC(=O)c1c(-c2c(Cl)cncc2Cl)noc1-c1cnn(-c2ccncc2)c1C(F)(F)F` [Example B-10, ethyl 3-(3,5-dichloropyridin-4-yl)-5-(1-(pyridin-4-yl)-5-(trifluoromethyl)-1H-pyrazol-4-yl)isoxazole-4-carboxylate], for which the pIC50 is 6.00 to 7.00.

On to `CCOC(=O)c1c(-c2c(Cl)cncc2Cl)noc1-c1cnn(-c2cccc(NC(C)=O)c2)c1C(F)(F)F` [Example B-11, ethyl 5-(1-(3-acetamidophenyl)-5-(trifluoromethyl)-1H-pyrazol-4-yl)-3-(3,5-dichloropyridin-4-yl)isoxazole-4-carboxylate], for which the pIC50 is 6.00 to 7.00.

As for `CCOC(=O)c1c(-c2c(Cl)cncc2Cl)noc1-c1cnn(-c2cccnc2)c1C(F)(F)F` [Example B-12, ethyl 3-(3,5-dichloropyridin-4-yl)-5-(1-(pyridin-3-yl)-5-(trifluoromethyl)-1H-pyrazol-4-yl)isoxazole-4-carboxylate], the pIC50 is 6.00 to 7.00.

With `CCOC(=O)c1c(-c2ccncc2F)noc1-c1cnn(-c2ccccc2Cl)c1C(F)(F)F` [Example B-13, ethyl 5-(1-(2-chlorophenyl)-5-(trifluoromethyl)-1H-pyrazol-4-yl)-3-(3-fluoropyridin-4-yl)isoxazole-4-carboxylate], the pIC50 was 7.00 to 8.00.

Regarding `CCOC(=O)c1c(-c2ccncc2F)noc1-c1cnn(-c2cccc(F)c2)c1C(F)(F)F` [Example B-14, ethyl 5-(1-(3-fluorophenyl)-5-(trifluoromethyl)-1H-pyrazol-4-yl)-3-(3-fluoropyridin-4-yl)isoxazole-4-carboxylate], the pIC50 was 5.00 to 6.00.

With `CCOC(=O)c1c(-c2ccncc2F)noc1-c1cnn(-c2ccccc2F)c1C(F)(F)F` [Example B-15, ethyl 5-(1-(2-fluorophenyl)-5-(trifluoromethyl)-1H-pyrazol-4-yl)-3-(3-fluoropyridin-4-yl)isoxazole-4-carboxylate], the pIC50 is 6.00 to 7.00.

For `CCOC(=O)c1c(-c2c(Cl)cncc2Cl)noc1-c1cnn(-c2ccccc2Cl)c1C(F)(F)F` [Example B-16, ethyl 5-(1-(2-chlorophenyl)-5-(trifluoromethyl)-1H-pyrazol-4-yl)-3-(3,5-dichloropyridin-4-yl)isoxazole-4-carboxylate], the pIC50 was 5.00 to 6.00.

For the compound `CCOC(=O)c1c(-c2ccncc2F)noc1-c1cnn(-c2cccnc2)c1C(F)(F)F` [Example B-17, ethyl 3-(3-fluoropyridin-4-yl)-5-(1-(pyridin-3-yl)-5-(trifluoromethyl)-1H-pyrazol-4-yl)isoxazole-4-carboxylate], the pIC50 is 5.00 to 6.00.

Take `COC(=O)c1c(-c2c(F)cccc2Cl)noc1-c1cnn(-c2ccccc2Cl)c1C(F)(F)F` [Example B-20, methyl 3-(2-chloro-6-fluorophenyl)-5-(1-(2-chlorophenyl)-5-(trifluoromethyl)-1H-pyrazol-4-yl)isoxazole-4-carboxylate]: the pIC50 was 5.00 to 6.00.

With `COC(=O)c1c(-c2c(F)cccc2Cl)noc1-c1cnn(-c2cccc(F)c2)c1` [Example B-21, methyl 3-(2-chloro-6-fluorophenyl)-5-(1-(3-fluorophenyl)-1H-pyrazol-4-yl)isoxazole-4-carboxylate], the pIC50 is 6.00 to 7.00.

Values taken from patent publication US8592456B2 (4SC Discovery GmbH, priority 2011, dated 2013).
